≈ marks a conversion by molar mass, not a printed value.
Assays:
[1] = Aqueous kinetic solubility of the compound in PBS buffer at pH 7.4; type: physicochemical; conditions: read-out: Kinetic_solubility
[2] = Apparent permeability of the compound from apical to basolateral side of MDCK cells; type: ADME, cell-based, Canis lupus familiaris; conditions: dog

SMILES	solubility kinetic [1]	Papp A→B [2]
N#C[C@H]1CCC[C@H]1Nc1nc(N2CCCCC2)nc2c(=O)[nH]ccc12 (racemic)	8.6 µM (≈ 2.91 µg/mL)	–
N#C[C@H]1CCC[C@H]1Nc1nc(-c2ccccc2)nc2c(=O)[nH]ccc12 (racemic)	11 µM (≈ 3.65 µg/mL)	–
N#C[C@H]1CCC[C@H]1Nc1nc(-c2cn[nH]c2)nc2c(=O)[nH]ccc12 (racemic)	24 µM (≈ 7.71 µg/mL)	0.2 ×10⁻⁶ cm/s
CCc1nc(N[C@@H]2CCC[C@@H]2C#N)c2cc[nH]c(=O)c2n1 (racemic)	140 µM (≈ 39.7 µg/mL)	0.6 ×10⁻⁶ cm/s
N#C[C@H]1CCC[C@H]1Nc1ncnc2c(=O)[nH]ccc12 (racemic)	104 µM (≈ 26.5 µg/mL)	–
N#CC1CCCC1Nc1ncnc2c(=O)[nH]ccc12 (single isomer, unassigned; enantiomer 1)	119 µM (≈ 30.4 µg/mL)	–

The remaining lines, values ahead:

solubility kinetic [1]	Papp A→B [2]	SMILES
225 µM (≈ 55 µg/mL)	–	O=c1[nH]ccc2c(NC3CCCCC3)ncnc12
318 µM (≈ 73.2 µg/mL)	2.5 ×10⁻⁶ cm/s	O=c1[nH]ccc2c(NC3CCCC3)ncnc12
74 µM (≈ 21 µg/mL)	–	CNc1nc(N[C@@H]2CCC[C@@H]2C#N)c2cc[nH]c(=O)c2n1 (racemic)
51 µM (≈ 17.4 µg/mL)	–	N#C[C@H]1CCC[C@H]1Nc1nc(N2CCOCC2)nc2c(=O)[nH]ccc12 (racemic)
19 µM (≈ 6.24 µg/mL)	–	CN(CCO)c1nc(N[C@@H]2CCC[C@@H]2C#N)c2cc[nH]c(=O)c2n1 (racemic)
